This test concerns the target T1, kynurenine-3-hydroxylase (Rattus norvegicus, UniProt O88867).
T1 construct: Rat liver mitochondrial extract was used as enzymatic preparation for this assay; from tissue; host or cells: rat liver mitochondrial extract
Description: Kynurenine-3-hydroxylase assay in rat liver (radiometric, release of tritiated water, mitochondrial extract). It counts as biochemical. Conditions: 37°C, 30 min, 0.025 mM L-kynurenine, read-out: KYN-3-OH inhibition (IC50) Liver. As for the experimental part: Kynurenine-3-hydroxylase assay in rat liver
The assay for kynurenine 3-hydroxylase was based on enzymatic synthesis of tritiated water during hydroxylation reaction. Radiolabelled water was quantified following selective adsorption of the isotopic substrate and its metabolites with active charcoal.
Rat liver mitochondrial extract was used as enzymatic preparation for this assay.
The assay for kynurenine 3-hydroxylase activity was carried out at 37°C for a time of 30 min. The reaction mixture of a total volume of […] was constituted of 44 mg of suspended extract, 100 mM Tris/Cl buffer pH 8.1, 10 mM EDTA, 100mM KCl, 0.8 mM NADPH, 0.025 mM L-kynurenine, 0.5 mCi L-(3,5-^3H)Kynurenine (10 Ci/mmol) and […] of different concentration of inhibitor solutions. After the incubation the reaction was terminated by the addition of 1 mL of 7.5% (w/v) activated charcoal, vortexed and centrifugated for 7 min.
A […] of supernatant was counted by scintillation spectroscopy in 5 ml of liquid scintillation.

One may read the IC50 as the concentration that inhibits the measured activity by half.

T1 sequence (O88867 whole entry): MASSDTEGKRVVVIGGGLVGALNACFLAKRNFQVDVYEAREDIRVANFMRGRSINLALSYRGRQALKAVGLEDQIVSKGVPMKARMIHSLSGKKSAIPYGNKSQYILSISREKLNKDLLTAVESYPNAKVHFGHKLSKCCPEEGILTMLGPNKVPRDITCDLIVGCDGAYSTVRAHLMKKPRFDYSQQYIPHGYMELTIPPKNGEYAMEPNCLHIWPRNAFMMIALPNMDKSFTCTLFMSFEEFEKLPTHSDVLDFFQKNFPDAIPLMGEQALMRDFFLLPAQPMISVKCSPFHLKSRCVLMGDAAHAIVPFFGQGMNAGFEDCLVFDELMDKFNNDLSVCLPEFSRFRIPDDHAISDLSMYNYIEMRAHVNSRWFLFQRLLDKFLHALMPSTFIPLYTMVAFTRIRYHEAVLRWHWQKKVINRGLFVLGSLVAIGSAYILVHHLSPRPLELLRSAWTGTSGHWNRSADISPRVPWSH

Turning to `Cc1c[nH]c2c1c(C(=O)O)nc1ccc(Cl)cc12` [FCE 29370, 8-chloro-3-methyl-1H-pyrrolo[3,2-c] quinoline-4-carboxylic acid], the concentration for half-maximal inhibition (IC50) came out at 61 µM. `O=C(O)c1nc2cc(Cl)ccc2c2[nH]cc(-c3ccccc3)c12` [FCE 29464, 7-chloro-3-phenyl-1H-pyrrolo[3,2-c] quinoline-4-carboxylic acid]: the IC50 worked out at 34 µM.

(Values after EP0922044B1, “PYRROLO(3,2-C) QUINOLINE DERIVATIVES” (PHARMACIA & UPJOHN S.p.A., priority 1996, dated 1998).)
